# Patent publication US20260365670A1, “EGFR INHIBITORS AND USES THEREOF” (DIZAL (JIANGSU) PHARMACEUTICAL CO., LTD., priority 2022, published 2026)
# Like-named read-outs stand apart in the source and are kept apart here.
# What was measured:
# [1] = molecular target: T1, EGFR[T790M/C797S/d746-750] (Homo sapiens, UniProt P00533, C797S/DEL746-750/T790M); test: Inhibition of EGFR[T790M/C797S/d746-750] biochemical enzymatic activity (HTRF); details: EGFR T790M-C797S-Del19, 1 mM ATP, 1 h, room temperature, read-out: IC50 (nM) @T790M - C797S - Del19
# T1 construct: purchased Carna Bio
# Summary of the method: (§1)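 1 mM ATP, 1 μM biotin-TK peptide, 5 mM MgCl2, 1 mM MnCl2, 0.01% CHAPS, 1 mM DTT, 0.5% DMSO; 1 h RT; EDTA stop; HTRF 665/615 nm; IC50 via 4PL.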
# [2] = tested on: Ba/F3 cells expressing EGFR mutations; test: Cell proliferation assay, Ba/F3 cells expressing EGFR mutations (CellTiter-Glo, 72 hours); type: cell-based; details: CellTiter-Glo
# Summary of the method: (§2)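 Cells are exposed to graded compound concentrations after overnight plating, using 500 PC-9 or 5000 Ba/F3 per well. Baseline-subtracted viability is compared with vehicle to give percent proliferation, then GI50.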
# EGFR Exon19Del = molecular target: T2, EGFR Exon19Del (Homo sapiens, UniProt P00533, DEL746-750); test: Inhibition of EGFR Exon19Del biochemical enzymatic activity (HTRF); details: EGFR Del19, 1 mM ATP, 1 h, room temperature, read-out: IC50 @Del19
# T2 construct: purchased Carna Bio
# Summary of the method: as §1
# EGFR[T790M/C797S/L858R] = molecular target: T3, EGFR[T790M/C797S/L858R] (Homo sapiens, UniProt P00533, C797S/L858R/T790M); test: Inhibition of EGFR[T790M/C797S/L858R] biochemical enzymatic activity (HTRF); details: EGFR T790M-C797S-L858R, 1 mM ATP, 1 h, room temperature, read-out: IC50 (nM) @T790M- C797S - L858R
# T3 construct: purchased Carna Bio
# T3 sequence (P00533 25-1210 T790M/C797S/L858R): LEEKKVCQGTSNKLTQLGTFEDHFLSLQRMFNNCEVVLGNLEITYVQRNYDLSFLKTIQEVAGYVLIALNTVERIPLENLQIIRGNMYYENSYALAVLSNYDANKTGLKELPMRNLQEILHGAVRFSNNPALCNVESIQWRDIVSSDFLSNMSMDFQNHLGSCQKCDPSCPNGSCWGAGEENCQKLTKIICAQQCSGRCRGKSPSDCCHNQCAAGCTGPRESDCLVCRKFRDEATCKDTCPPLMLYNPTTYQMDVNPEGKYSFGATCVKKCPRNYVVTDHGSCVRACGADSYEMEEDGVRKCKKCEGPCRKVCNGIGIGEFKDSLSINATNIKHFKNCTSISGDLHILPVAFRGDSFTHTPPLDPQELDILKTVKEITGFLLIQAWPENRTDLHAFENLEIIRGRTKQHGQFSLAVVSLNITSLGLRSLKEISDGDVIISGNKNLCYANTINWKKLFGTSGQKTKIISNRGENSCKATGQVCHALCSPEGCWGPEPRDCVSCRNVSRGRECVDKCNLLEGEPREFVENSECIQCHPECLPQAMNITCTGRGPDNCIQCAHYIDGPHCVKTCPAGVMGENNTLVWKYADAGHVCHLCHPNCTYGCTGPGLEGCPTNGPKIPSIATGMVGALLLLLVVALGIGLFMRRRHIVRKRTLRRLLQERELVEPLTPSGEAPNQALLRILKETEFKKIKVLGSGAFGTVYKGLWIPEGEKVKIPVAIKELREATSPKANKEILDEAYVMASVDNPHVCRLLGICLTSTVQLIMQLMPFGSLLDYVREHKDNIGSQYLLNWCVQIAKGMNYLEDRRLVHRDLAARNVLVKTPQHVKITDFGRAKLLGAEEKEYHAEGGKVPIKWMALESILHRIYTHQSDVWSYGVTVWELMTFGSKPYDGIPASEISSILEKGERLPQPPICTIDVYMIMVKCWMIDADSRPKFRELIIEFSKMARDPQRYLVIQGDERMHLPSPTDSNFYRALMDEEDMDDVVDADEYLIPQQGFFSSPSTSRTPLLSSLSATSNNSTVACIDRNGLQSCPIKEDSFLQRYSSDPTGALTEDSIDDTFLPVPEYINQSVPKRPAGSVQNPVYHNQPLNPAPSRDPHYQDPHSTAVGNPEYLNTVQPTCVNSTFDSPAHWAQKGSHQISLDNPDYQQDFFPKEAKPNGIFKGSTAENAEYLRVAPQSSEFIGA
# Summary of the method: as §1
# EGFR (d746-750 C797S) = molecular target: T4, EGFR (d746-750 C797S) (Homo sapiens, UniProt P00533, C797S/DEL746-750); test: Inhibition of EGFR (d746-750 C797S) biochemical enzymatic activity (HTRF); details: EGFR Del19-C797S, 1 mM ATP, 1 h, room temperature, read-out: IC50 (nM) @Del19-C797S
# T4 construct: purchased signalchem
# Summary of the method: as §1
# EGFR L858R = molecular target: T5, EGFR L858R (Homo sapiens, UniProt P00533, L858R); test: Inhibition of EGFR L858R biochemical enzymatic activity (HTRF); details: 1 mM ATP, 1 h, room temperature, read-out: IC50 (nM) @L858R
# T5 construct: purchased Carna Bio
# T5 sequence (P00533 25-1210 L858R): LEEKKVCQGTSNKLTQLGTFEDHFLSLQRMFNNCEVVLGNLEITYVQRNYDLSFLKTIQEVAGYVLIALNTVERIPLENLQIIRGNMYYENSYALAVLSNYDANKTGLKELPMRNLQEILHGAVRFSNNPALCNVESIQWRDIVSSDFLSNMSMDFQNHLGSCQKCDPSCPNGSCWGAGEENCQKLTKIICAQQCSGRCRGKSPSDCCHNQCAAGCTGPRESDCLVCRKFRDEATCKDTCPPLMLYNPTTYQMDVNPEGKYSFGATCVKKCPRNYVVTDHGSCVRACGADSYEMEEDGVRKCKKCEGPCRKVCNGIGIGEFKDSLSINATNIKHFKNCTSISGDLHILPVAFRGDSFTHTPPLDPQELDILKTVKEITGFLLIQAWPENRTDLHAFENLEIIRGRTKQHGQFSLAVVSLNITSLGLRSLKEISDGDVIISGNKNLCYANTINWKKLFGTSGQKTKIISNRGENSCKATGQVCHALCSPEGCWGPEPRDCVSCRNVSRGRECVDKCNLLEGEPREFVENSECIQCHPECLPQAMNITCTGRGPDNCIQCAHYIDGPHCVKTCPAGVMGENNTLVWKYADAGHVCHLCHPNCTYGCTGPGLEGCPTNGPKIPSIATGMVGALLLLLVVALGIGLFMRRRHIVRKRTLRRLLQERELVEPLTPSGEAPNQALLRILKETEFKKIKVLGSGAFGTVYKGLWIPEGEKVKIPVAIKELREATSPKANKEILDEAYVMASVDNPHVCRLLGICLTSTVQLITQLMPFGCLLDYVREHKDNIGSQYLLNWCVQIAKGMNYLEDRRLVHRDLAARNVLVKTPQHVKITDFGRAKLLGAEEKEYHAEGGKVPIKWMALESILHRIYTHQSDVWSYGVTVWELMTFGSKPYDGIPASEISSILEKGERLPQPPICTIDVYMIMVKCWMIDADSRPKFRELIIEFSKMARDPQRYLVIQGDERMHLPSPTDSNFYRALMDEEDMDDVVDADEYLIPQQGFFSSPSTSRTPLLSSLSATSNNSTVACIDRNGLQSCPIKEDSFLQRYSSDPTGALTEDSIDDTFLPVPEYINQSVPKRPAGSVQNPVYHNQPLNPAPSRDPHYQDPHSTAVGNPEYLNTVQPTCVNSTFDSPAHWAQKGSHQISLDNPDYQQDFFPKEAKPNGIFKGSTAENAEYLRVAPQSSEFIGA
# Summary of the method: as §1
# EGFR wild type = molecular target: T6, EGFR wild type (Homo sapiens, UniProt P00533); test: Inhibition of EGFR wild type biochemical enzymatic activity (HTRF); details: EGFR WT, 1 mM ATP, 1 h, room temperature, read-out: IC50 (nM) @WT
# T6 construct: purchased Carna Bio
# T6 sequence (P00533 25-1210): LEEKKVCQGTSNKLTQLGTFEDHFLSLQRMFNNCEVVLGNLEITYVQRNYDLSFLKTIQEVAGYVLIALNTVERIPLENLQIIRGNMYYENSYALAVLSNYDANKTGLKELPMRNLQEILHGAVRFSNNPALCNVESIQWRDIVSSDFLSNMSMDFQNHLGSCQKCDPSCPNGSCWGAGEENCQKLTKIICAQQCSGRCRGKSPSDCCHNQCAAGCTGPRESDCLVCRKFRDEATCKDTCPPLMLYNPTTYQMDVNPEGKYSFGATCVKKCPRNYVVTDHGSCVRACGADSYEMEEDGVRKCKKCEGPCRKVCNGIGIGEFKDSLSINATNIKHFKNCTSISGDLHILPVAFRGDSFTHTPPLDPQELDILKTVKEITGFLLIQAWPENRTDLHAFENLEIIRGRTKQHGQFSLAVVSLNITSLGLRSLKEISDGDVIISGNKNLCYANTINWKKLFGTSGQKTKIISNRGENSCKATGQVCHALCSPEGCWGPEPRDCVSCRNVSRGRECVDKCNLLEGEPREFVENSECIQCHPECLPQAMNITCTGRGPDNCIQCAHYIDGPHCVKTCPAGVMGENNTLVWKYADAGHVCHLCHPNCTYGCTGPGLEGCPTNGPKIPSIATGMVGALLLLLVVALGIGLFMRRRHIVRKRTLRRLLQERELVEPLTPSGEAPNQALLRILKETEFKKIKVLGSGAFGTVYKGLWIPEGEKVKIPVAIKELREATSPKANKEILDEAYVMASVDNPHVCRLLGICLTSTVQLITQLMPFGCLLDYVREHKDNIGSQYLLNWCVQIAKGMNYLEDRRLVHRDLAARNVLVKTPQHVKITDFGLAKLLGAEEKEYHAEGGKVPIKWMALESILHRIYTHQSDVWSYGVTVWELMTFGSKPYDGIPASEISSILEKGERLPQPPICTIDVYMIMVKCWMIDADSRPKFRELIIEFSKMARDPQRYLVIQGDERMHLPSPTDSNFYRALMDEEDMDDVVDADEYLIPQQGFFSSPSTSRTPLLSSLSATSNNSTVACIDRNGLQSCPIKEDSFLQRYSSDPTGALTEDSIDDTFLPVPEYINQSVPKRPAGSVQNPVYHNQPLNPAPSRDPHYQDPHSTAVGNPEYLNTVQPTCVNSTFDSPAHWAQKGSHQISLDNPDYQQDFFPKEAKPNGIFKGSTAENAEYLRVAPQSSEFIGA
# Summary of the method: as §1
# PC-9 = test: Cell proliferation assay, PC-9 cells (CellTiter-Glo, 72 hours); type: cell-based; details: PC9 cells, CellTiter-Glo, read-out: PC9 GI50
# Summary of the method: as §2
# A-431 = test: Cell proliferation GI50, A-431 cells (Table 6); type: cell-based
# EGFR L858R/T790M = molecular target: T7, EGFR L858R/T790M (Homo sapiens, UniProt P00533, L858R/T790M); test: Inhibition of EGFR L858R/T790M biochemical enzymatic activity (HTRF); details: EGFR L858R-T790M, 1 mM ATP, 1 h, room temperature, read-out: IC50 (nM) @L858R-T790M
# T7 construct: purchased Carna Bio
# T7 sequence (P00533 25-1210 T790M/L858R): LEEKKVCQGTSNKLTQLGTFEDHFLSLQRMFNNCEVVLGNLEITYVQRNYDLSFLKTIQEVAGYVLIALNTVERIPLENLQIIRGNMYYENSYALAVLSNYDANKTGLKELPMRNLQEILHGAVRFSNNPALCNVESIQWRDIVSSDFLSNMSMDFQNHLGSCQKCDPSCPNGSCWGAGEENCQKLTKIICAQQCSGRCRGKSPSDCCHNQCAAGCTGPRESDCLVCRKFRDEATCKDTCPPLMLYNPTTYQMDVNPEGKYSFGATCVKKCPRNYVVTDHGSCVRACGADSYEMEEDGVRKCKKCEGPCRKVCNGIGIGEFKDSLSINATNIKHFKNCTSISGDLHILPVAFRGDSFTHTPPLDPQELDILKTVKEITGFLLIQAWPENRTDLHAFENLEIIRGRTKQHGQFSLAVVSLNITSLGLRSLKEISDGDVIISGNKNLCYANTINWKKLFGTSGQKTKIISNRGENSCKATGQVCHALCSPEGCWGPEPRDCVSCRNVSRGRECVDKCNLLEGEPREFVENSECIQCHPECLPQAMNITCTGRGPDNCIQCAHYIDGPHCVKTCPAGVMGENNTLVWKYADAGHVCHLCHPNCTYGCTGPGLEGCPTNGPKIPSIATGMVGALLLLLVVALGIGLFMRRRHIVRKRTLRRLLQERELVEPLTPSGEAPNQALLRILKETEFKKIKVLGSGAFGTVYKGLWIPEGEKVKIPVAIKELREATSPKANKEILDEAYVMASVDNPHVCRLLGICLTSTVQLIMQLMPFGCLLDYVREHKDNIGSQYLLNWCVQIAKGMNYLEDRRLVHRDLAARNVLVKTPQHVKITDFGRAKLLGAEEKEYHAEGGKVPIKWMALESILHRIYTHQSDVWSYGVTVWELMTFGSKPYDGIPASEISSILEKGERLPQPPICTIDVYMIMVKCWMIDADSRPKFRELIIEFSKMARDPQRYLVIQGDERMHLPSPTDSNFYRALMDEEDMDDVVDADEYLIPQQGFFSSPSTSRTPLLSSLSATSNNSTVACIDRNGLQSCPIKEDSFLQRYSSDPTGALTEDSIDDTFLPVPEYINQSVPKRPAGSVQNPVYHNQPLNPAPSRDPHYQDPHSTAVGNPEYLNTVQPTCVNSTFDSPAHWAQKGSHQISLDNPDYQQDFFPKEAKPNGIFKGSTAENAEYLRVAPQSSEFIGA
# Summary of the method: as §1
# EGFR (C797S L858R) = molecular target: T8, EGFR (C797S L858R) (Homo sapiens, UniProt P00533, C797S/L858R); test: Inhibition of EGFR (C797S L858R) biochemical enzymatic activity (HTRF); details: EGFR L858-C797S, 1 mM ATP, 1 h, room temperature, read-out: IC50 (nM) @L858-C797S
# T8 construct: purchased signalchem
# Summary of the method: as §1
# EGFR Exon19Del/T790M = molecular target: T9, EGFR Exon19Del/T790M (Homo sapiens, UniProt P00533, DEL746-750/T790M); test: Inhibition of EGFR Exon19Del/T790M biochemical enzymatic activity (HTRF); details: EGFR Del19-T790M, 1 mM ATP, 1 h, room temperature, read-out: IC50 (nM) @Del19-T790M
# T9 construct: purchased Carna Bio
# Summary of the method: as §1
# [3] = BaF3 cells, EGFR DEL19-C797S, read-out: DEL19-C797S/BaF3 GI50
# [4] = BaF3 cells, EGFR DEL19-T790-C797S, read-out: DEL19-T790-C797S/BaF3 GI50
# [5] = BaF3 cells, EGFR L858R, read-out: L858R/BaF3 GI50
# [6] = BaF3 cells, EGFR L858R-C797S, read-out: L858R-C797S/BaF3 GI50
# [7] = BaF3 cells, EGFR L858R-T790-C797S, read-out: L858R-T790-C797S/BaF3 GI50
# [8] = BaF3 cells, EGFR L858R-T790M, read-out: L858R-T790M/BaF3 GI50
# [9] = EGFR DEL19-T790M, read-out: DEL19-T790M GI50
SMILES,IC50 [1] [nM],"GI50 [2, 3] [nM]","GI50 [2, 4] [nM]","GI50 [2, 5] [nM]","GI50 [2, 6] [nM]","GI50 [2, 7] [nM]","GI50 [2, 8] [nM]","GI50 [2, 9] [nM]",IC50 (EGFR Exon19Del) [nM],IC50 (EGFR[T790M/C797S/L858R]) [nM],IC50 (EGFR (d746-750 C797S)) [nM],IC50 (EGFR L858R) [nM],IC50 (EGFR wild type) [nM],GI50 (PC-9) [nM],GI50 (A-431; A-431 cells) [nM],IC50 (EGFR L858R/T790M) [nM],IC50 (EGFR (C797S L858R)) [nM],IC50 (EGFR Exon19Del/T790M) [nM],also measured
C[C@@H]1CCCOc2c(cnn2C)-c2cc(cn(C)c2=O)C(=O)Nc2nc3ccc(N4CCC5(CC4)CCN5C)cc3n2C1 [Example A52],3.4,,,,,,,,1.3,3.9,1.4,6.3,54,,,6.6,4.7,3.5,"GI50 ([2]; Mus musculus, BaF3, 72 h, BaF3 cells, EGFR DEL19-C797S, read-out: DEL19-C797S/BaF3 GI50): 1.3 nM; GI50 ([2]; Mus musculus, BaF3, 72 h, BaF3 cells, EGFR DEL19-T790-C797S, read-out: DEL19-T790-C797S/BaF3 GI50): 6.3 nM; GI50 ([2]; Mus musculus, BaF3, 72 h, BaF3 cells, EGFR L858R, read-out: L858R/BaF3 GI50): 8.1 nM; GI50 ([2]; Mus musculus, BaF3, 72 h, BaF3 cells, EGFR L858R-C797S, read-out: L858R-C797S/BaF3 GI50): 8.4 nM; GI50 ([2]; Mus musculus, BaF3, 72 h, BaF3 cells, EGFR L858R-T790-C797S, read-out: L858R-T790-C797S/BaF3 GI50): 9.6 nM; GI50 ([2]; Mus musculus, BaF3, 72 h, BaF3 cells, EGFR L858R-T790M, read-out: L858R-T790M/BaF3 GI50): 13.1 nM; GI50 ([2]; Mus musculus, BaF3, 72 h, EGFR DEL19-T790M, read-out: DEL19-T790M GI50): 9.6 nM; GI50 (PC-9; Homo sapiens, PC-9, 72 h): 15.4 nM; GI50 (A-431; Homo sapiens, A-431, A-431 cells): 480 nM"
"CN(C)CCCN(C)c1ccc2nc3n(c2c1)C12CCC(CN(CCOc4c(cnn4C)-c4cc(cn(C)c4=O)C(=O)N3)C1)C2 (single isomer, unassigned) [Example A89A]",> 5000,103,178,135,165,280,367,115,250,> 5000,573,3600,> 5000,791,6390,> 5000,> 5000,> 5000,
"CN1CCCC12CN(c1ccc3nc4n(c3c1)C13CCC(CN(CCOc5c(cnn5C)-c5cc(cn(C)c5=O)C(=O)N4)C1)C3)C2 (single isomer, unassigned) [Example A76B]",4.4,0.78,12,13,7.6,34,39,12,4.2,6.9,3.5,39,206,23,1640,7,27,4.9,

# Now from value to molecule, other results behind:
IC50 [1] [nM],"GI50 [2, 3] [nM]","GI50 [2, 4] [nM]","GI50 [2, 5] [nM]","GI50 [2, 6] [nM]","GI50 [2, 7] [nM]","GI50 [2, 8] [nM]","GI50 [2, 9] [nM]",IC50 (EGFR Exon19Del) [nM],IC50 (EGFR[T790M/C797S/L858R]) [nM],IC50 (EGFR (d746-750 C797S)) [nM],IC50 (EGFR L858R) [nM],IC50 (EGFR wild type) [nM],GI50 (PC-9) [nM],GI50 (A-431; A-431 cells) [nM],IC50 (EGFR L858R/T790M) [nM],IC50 (EGFR (C797S L858R)) [nM],IC50 (EGFR Exon19Del/T790M) [nM],SMILES,also measured
2.5,0.72,2.1,2.1,3.9,6,12,2.7,2.6,3.5,1.4,6.7,57,6.6,727,5,4.8,3.4,"CN(C)C1CN(c2ccc3nc4n(c3c2)C23CCC(CN(CCOc5c(cnn5C)-c5cc(cn(C)c5=O)C(=O)N4)C2)C3)CC1F (single isomer, unassigned) [Example A84C, 15,21-Dimethyl-5-[4-fluoro-3-(N,N-dimethylamino)pyrrolidinyl]-23-oxa-2,9,11,15,20,21,26-heptaazaheptacyclo[24.4.1.1^{1,28}.1^{13,17}.0^{2,10}.0^{3,8}.0^{18,22}]tritriaconta-3,5,7,9,13,17(33),18(22),19-octaene-12,16-dione]",
4,0.57,3.2,2.2,3.8,4.1,9.2,2.6,1.9,5.4,2.2,16,134,28,1700,7.4,11,3.8,"CN(C)CCCN(C)c1ccc2nc3n(c2c1)C12CCC(CN(CCOc4c(cnn4C)-c4cc(cn(C)c4=O)C(=O)N3)C1)C2 (single isomer, unassigned) [Example A89B]",
> 5000,57,159,119,100,252,361,163,477,> 5000,1160,> 5000,> 5000,611,6260,> 5000,> 5000,> 5000,"CN1CCC2(CC1)CCN(c1ccc3nc4n(c3c1)C13CCC(CN(CCOc5c(cnn5C)-c5cc(cn(C)c5=O)C(=O)N4)C1)C3)C2 (single isomer, unassigned) [Example A88A]",
